Assays:
[1] = system: CAG foci in primary DM1 patient myoblasts; experiment: Single-cut screening: CAG foci staining; format: cell-based, human; details: single sgRNA; for % of CAG foci positive nuclei (DNA-PKi): DNA-PKi treated
Outline: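 Primary DM1 patient myoblasts were PFA-fixed and hybridized with […] (1 ng/μL, 15 min at 80° C) in 30% formamide/2×SSC, followed by anti-MBNL1 immunostaining and Hoechst counterstain. CAG RNA foci were quantified by high-content confocal imaging after single-cut SuCas9 sgRNA editing.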

[2] = system: 3′ UTR of the human DMPK gene; experiment: Single-cut screening: indel editing efficiency by Sanger sequencing and ICE analysis in primary DM1 patient myoblasts; format: cell-based; details: vehicle-treated samples; for Indel efficiency: single SluCas9 sgRNA RNP in primary DM1 patient myoblasts, Sanger sequencing and ICE analysis
Procedure: Genomic DNA of DM1 myoblasts was isolated with the Kingfisher Flex purification system (Thermal Fisher) in 96-well format following the manufacturer's instruction. The DMPK 3′ UTR region was amplified using GoTaq Green Master Mix (Promega) and PCR primers flanking the 3′ UTR region. […] Amplification was conducted using the following cycling parameters: 1 cycle at 95° C. for 2 min; 40 cycles of 95° C. for 30 sec, 63° C. for 30 sec, and 72° C. for 90 sec; 1 cycle at 72° C. for 5 min. Only the wild type allele is amplified by the PCR reaction. The PCR products were analyzed on the TapeStation system with High Sensitivity D5000 ScreenTape (Agilent Technologies).
PCR products were purified and sequenced by Sanger sequencing. […] Indel values were estimated using the ICE analysis algorithm (Synthego) with the chromatogram files obtained from Sanger sequencing.
RNPs were assembled with recombinant SluCas9 protein and chemically modified sgRNAs at a ratio of 1:3 (protein:sgRNA). For SINGLE-cut screening, RNP complexes were assembled with 30 pmol of SluCas9 and 90 pmol of sgRNA in P5 Primary Cell Nucleofector Solution (Lonza). After incubation at room temperature for 20 minutes, 10 μL of RNP complex were mixed with two hundred thousand of primary myoblasts resuspended in 10 μL of P5 Nucleofector Solution. For DOUBLE-cut screening, RNP complexes were first assembled for individual sgRNAs with 20 pmol of SluCas9 protein and 60 pmol of sgRNAs in 5 μL of P5 Nucleofector Solution. After incubation at room temperature for 20 minutes, the two RNP complexes (one for upstream sgRNA and one for downstream sgRNA) were mixed at 1:1 ratio and then further mixed with two hundred thousand of primary myoblasts resuspended in 10 μL of P5 Nucleofector Solution.
The Nucleofector 96-well Shuttle System (Lonza) was used to deliver the SluCa9/sgRNA RNPs into primary DM1 patient myoblasts using the nucleofection program CM138. […] 72 hrs post nucleofection, two wells of DMSO-treated myoblasts and two wells of DNA-PKi-treated myoblasts from each nucleofection were harvested for genomic DNA extraction using the Kingfisher Flex purification system (Thermal Fisher), whereas one well of DMSO-treated myoblasts and one well of DNA-PKi-treated myoblasts were stained for RNA foci by FISH staining.
To assess the efficiency of individual SluCas9 sgRNAs for inducing indel editing and CTG repeat excision, single-cut screening was performed in which individual SluCas9 sgRNAs and recombinant SluCas9 protein were assembled into ribonucleoprotein (RNP) and delivered into primary DM1 patient myoblasts. […] Seventy-two (72) hrs post nucleofection, myoblasts were subjected to either genomic DNA isolation or RNA foci staining by fluorescence in situ hybridization (FISH).
Sanger sequencing and ICE analysis were then performed to quantify the frequency of indels induced by individual sgRNAs. It is of note that only the vehicle-treated samples were used for ICE analysis.
Editing efficiency was assessed by Sanger sequencing and ICE analysis. […] The * indicates the sgRNAs with R2<0.9 in the ICE analysis (in-house QC standard for reliable ICE analysis).

[3] = system: CUG foci in primary DM1 patient myoblasts; experiment: Single-cut screening: FISH staining of CUG RNA foci; format: cell-based, human; details: single sgRNA, primary DM1 patient myoblasts; for % of CUG foci free nuclei (DNA-PKi): DNA-PKi treated
Outline: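 CD56-purified primary DM1 patient myoblasts nucleofected with SluCas9:sgRNA RNP (30:90 pmol, single-cut), then DMSO or 3 μM DNA-PK inhibitor for 48 h. At 72 h post-nucleofection, cells fixed and stained for CUG foci with Cy3-PNA(CAG)5 probe (1 ng/μL, 80 °C), co-stained for MBNL1 and Hoechst, imaged by high-content confocal microscopy.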

Substance: GACAATAAATACCGAGGAATGT (guide RNA; chemistry not fully specified) [SluD81]
- % of CAG foci positive nuclei (DNA-PKi) [1]: 1.75%
- % of CAG foci positive nuclei (Vehicle) [1]: 1.54%
- Indel efficiency [2]: 10%
- % of CUG foci free nuclei (DNA-PKi) [3]: 28.66%
- % of CUG foci free nuclei (Vehicle) [3]: 9.64%

Substance: ATCCGGGCCCGCCCCCTAGCgg (guide RNA; as printed in the source, key not given here) [SluU35]
- % of CAG foci positive nuclei (DNA-PKi) [1]: 1.42%
- % of CAG foci positive nuclei (Vehicle) [1]: 0.69%
- Indel efficiency [2]: 25%
- % of CUG foci free nuclei (DNA-PKi) [3]: 55.71%
- % of CUG foci free nuclei (Vehicle) [3]: 14.23%

Substance: AGGGCCTTTTATTCGCGAGGGT (guide RNA; chemistry not fully specified) [SluD96]
- % of CAG foci positive nuclei (DNA-PKi) [1]: 2.73%
- % of CAG foci positive nuclei (Vehicle) [1]: 2.21%
- Indel efficiency [2]: 31%
- % of CUG foci free nuclei (DNA-PKi) [3]: 31.02%
- % of CUG foci free nuclei (Vehicle) [3]: 21%

Substance: gagggaggggccgggtccgcgg (GAGGGAGGGGCCGGGTCCGCGG; guide RNA; chemistry not fully specified) [SluU54]
- % of CAG foci positive nuclei (DNA-PKi) [1]: 1.28%
- % of CAG foci positive nuclei (Vehicle) [1]: 1.14%
- Indel efficiency [2]: 10%
- % of CUG foci free nuclei (DNA-PKi) [3]: 53.64%
- % of CUG foci free nuclei (Vehicle) [3]: 13.12%

Substance: CCTGACGTGGATGGGCAAACTG (guide RNA; chemistry not fully specified) [SluD09]
- % of CAG foci positive nuclei (DNA-PKi) [1]: 1.48%
- % of CAG foci positive nuclei (Vehicle) [1]: 1.16%
- Indel efficiency [2]: 5%
- % of CUG foci free nuclei (DNA-PKi) [3]: 33.83%
- % of CUG foci free nuclei (Vehicle) [3]: 12.5%

Substance: CGGATCACAGGACTGGAGCTGG (guide RNA; chemistry not fully specified) [SluU29]
- % of CAG foci positive nuclei (DNA-PKi) [1]: 1.82%
- % of CAG foci positive nuclei (Vehicle) [1]: 1.18%
- Indel efficiency [2]: 67%
- % of CUG foci free nuclei (DNA-PKi) [3]: 48.49%
- % of CUG foci free nuclei (Vehicle) [3]: 27.28%

Substance: GATGGAGGGCCTTTTATTCGCG (guide RNA; chemistry not fully specified) [SluD98]
- % of CAG foci positive nuclei (DNA-PKi) [1]: 1.47%
- % of CAG foci positive nuclei (Vehicle) [1]: 0.84%
- Indel efficiency [2]: 0%
- % of CUG foci free nuclei (DNA-PKi) [3]: 11.71%
- % of CUG foci free nuclei (Vehicle) [3]: 11.21%

Substance: CTTGTGCATGACGCCCTGCTCT (listed as DNA, chemistry not fully specified) [SluD32]
- % of CAG foci positive nuclei (DNA-PKi) [1]: 1.31%
- % of CAG foci positive nuclei (Vehicle) [1]: 1.43%
- Indel efficiency [2]: 94%
- indel efficiency (Sanger sequencing and ICE analysis) ([2]; single-cut, SluCas9 RNP, 72 hrs post nucleofection, wild-type allele): high editing IN4DEL efficiency
- % of CUG foci free nuclei (DNA-PKi) [3]: 26.23%
- % of CUG foci free nuclei (Vehicle) [3]: 19.22%

Substance: TGGAAGACTGAGTGCCCGGGGC (guide RNA; chemistry not fully specified) [SluU14]
- % of CAG foci positive nuclei (DNA-PKi) [1]: 1.63%
- % of CAG foci positive nuclei (Vehicle) [1]: 1.02%
- Indel efficiency [2]: 52%
- % of CUG foci free nuclei (DNA-PKi) [3]: 58.84%
- % of CUG foci free nuclei (Vehicle) [3]: 29.12%

Substance: TCAGTGCATCCAAAACGTGGAT (guide RNA; chemistry not fully specified) [SluD76]
- % of CAG foci positive nuclei (DNA-PKi) [1]: 2.16%
- % of CAG foci positive nuclei (Vehicle) [1]: 1.73%
- Indel efficiency [2]: 20%
- % of CUG foci free nuclei (DNA-PKi) [3]: 29.87%
- % of CUG foci free nuclei (Vehicle) [3]: 15.78%

Substance: GGGGGTGCGTGGAGGATGGAAC (guide RNA; chemistry not fully specified) [SluD20]
- % of CAG foci positive nuclei (DNA-PKi) [1]: 1.1%
- % of CAG foci positive nuclei (Vehicle) [1]: 1.81%
- Indel efficiency [2]: 24%
- % of CUG foci free nuclei (DNA-PKi) [3]: 24.59%
- % of CUG foci free nuclei (Vehicle) [3]: 13.32%

Substance: GATAGGTGGGGGTGCGTGGAGG (guide RNA; chemistry not fully specified) [SluD21]
- % of CAG foci positive nuclei (DNA-PKi) [1]: 1.77%
- % of CAG foci positive nuclei (Vehicle) [1]: 1.95%
- Indel efficiency [2]: 36%
- % of CUG foci free nuclei (DNA-PKi) [3]: 32.15%
- % of CUG foci free nuclei (Vehicle) [3]: 9.96%

Substance: GGGTCGGGGGTGGGGGTCCTAG (guide RNA; chemistry not fully specified) [SluD87]
- % of CAG foci positive nuclei (DNA-PKi) [1]: 2.19%
- % of CAG foci positive nuclei (Vehicle) [1]: 1.3%
- Indel efficiency [2]: 30%
- % of CUG foci free nuclei (DNA-PKi) [3]: 39.12%
- % of CUG foci free nuclei (Vehicle) [3]: 15.16%

Substance: CGCCCCCTAGCggccggggagg (guide RNA; as printed in the source, key not given here) [SluU41]
- % of CAG foci positive nuclei (DNA-PKi) [1]: 1.08%
- % of CAG foci positive nuclei (Vehicle) [1]: 0.74%
- Indel efficiency [2]: 13%
- % of CUG foci free nuclei (DNA-PKi) [3]: 47.52%
- % of CUG foci free nuclei (Vehicle) [3]: 13.34%

Substance: CCGAGAGCAGCGCAAGTGAGGA (guide RNA; chemistry not fully specified) [SluD50]
- % of CAG foci positive nuclei (DNA-PKi) [1]: 2.2%
- % of CAG foci positive nuclei (Vehicle) [1]: 1.81%
- Indel efficiency [2]: 4%
- % of CUG foci free nuclei (DNA-PKi) [3]: 30.13%
- % of CUG foci free nuclei (Vehicle) [3]: 7.64%

Substance: AATAAATATCCAAACCGCCGAA (guide RNA; chemistry not fully specified) [SluD64]
- % of CAG foci positive nuclei (DNA-PKi) [1]: 2.38%
- % of CAG foci positive nuclei (Vehicle) [1]: 2.64%
- Indel efficiency [2]: 23%
- % of CUG foci free nuclei (DNA-PKi) [3]: 32.65%
- % of CUG foci free nuclei (Vehicle) [3]: 11.02%

Substance: TGCACTGAGACCCCGACATTCC (guide RNA; chemistry not fully specified) [SluD79]
- % of CAG foci positive nuclei (DNA-PKi) [1]: 1.79%
- % of CAG foci positive nuclei (Vehicle) [1]: 0.82%
- Indel efficiency [2]: 2%
- % of CUG foci free nuclei (DNA-PKi) [3]: 25.61%
- % of CUG foci free nuclei (Vehicle) [3]: 11.48%

Substance: CAGTTCACAACCGCTCCGAGCG (guide RNA; chemistry not fully specified) [SluU23]
- % of CAG foci positive nuclei (DNA-PKi) [1]: 1.53%
- % of CAG foci positive nuclei (Vehicle) [1]: 1%
- Indel efficiency [2]: 5%
- % of CUG foci free nuclei (DNA-PKi) [3]: 29.8%
- % of CUG foci free nuclei (Vehicle) [3]: 11.23%

From patent publication US20240173432A1, “Compositions and Methods for Treatment of Myotonic Dystrophy Type 1 with CRISPR/SluCas9” (Vertex Pharmaceuticals Incorporated, priority 2021, published 2024)
